From ChEMBL document CHEMBL3352646, “New imidazo[1,2-b]pyrazoles as anticancer agents: synthesis, biological evaluation and structure activity relationship analysis” (Eur J Med Chem, 2014)

Test system: MCF7
Assay: Anticancer activity human MCF7 cells assessed as growth inhibition by MTT colorimetric assay
Assay type: functional, cell-based
Settings: not given

Row | SMILES | IC50
1 | COc1ccc(-c2cn3nc(-c4ccccc4)c(CN4CCOCC4)c3n2C)cc1 | 5 µM
2 | COc1ccc(-c2cn3nc(-c4ccccc4)c(C(=O)N4CCN(C)CC4)c3n2C)cc1 | 88 µM
3 | COc1ccc(-c2cn3nc(-c4ccccc4)c(C(=O)N4CCOCC4)c3n2C)cc1 | > 100 µM
4 | COc1ccc(-c2c(-c3ccccc3C#N)n3nc(-c4ccccc4)cc3n2C)cc1 | 35 µM
5 | COc1ccc(-c2c(-c3ccc(OC)cc3)n3nc(-c4ccccc4)cc3n2C)cc1 | > 100 µM
6 | COc1ccc(-c2c(-c3ccc(C(F)(F)F)cc3)n3nc(-c4ccccc4)cc3n2C)cc1 | > 100 µM
7 | COc1ccc(-c2c(-c3cccc(C)c3)n3nc(-c4ccccc4)cc3n2C)cc1 | 75 µM
8 | COc1ccc(-c2c(-c3ccc(C(F)(F)F)cc3)n3nc(-c4ccccc4)c(CN4CCOCC4)c3n2C)cc1 | 1.9 µM
9 | COc1ccc(-c2c(-c3ccc(C(F)(F)F)cc3)n3nc(-c4ccccc4)c(CN4CCN(C)CC4)c3n2C)cc1 | 20 µM
10 | COc1ccc(-c2c(-c3ccc(C)cc3)n3nc(-c4ccccc4)c(CN4CCOCC4)c3n2C)cc1 | 45 µM
11 | COc1ccc(-c2c(-c3ccc(C)cc3)n3nc(-c4ccccc4)c(CN4CCN(C)CC4)c3n2C)cc1 | 18 µM
12 | COc1ccc(-c2c(-c3ccc(C)cc3)n3nc(-c4ccccc4)c(CN4CCCCC4)c3n2C)cc1 | 72 µM
13 | COc1ccc(-c2c(-c3ccncc3)n3nc(-c4ccccc4)c(CN4CCOCC4)c3n2C)cc1 | 16 µM
14 | COc1ccc(-c2c(-c3ccc(C(F)(F)F)cc3)n(C)c3c(CN4CCOCC4)c(-c4ccccc4)nn23)cc1 | 59 µM

Test system: not listed separately
Assay: Cytotoxicity against human NHLF cells by MTT colorimetric assay
Assay type: cell-based
Settings: not given

Row | SMILES | Activity
15 | COc1ccc(-c2c(-c3ccc(C(F)(F)F)cc3)n3nc(-c4ccccc4)c(CN4CCOCC4)c3n2C)cc1 | Non-toxic

Test system: not listed separately
Assay: Anticancer activity human Hs683 cells assessed as growth inhibition by MTT colorimetric assay
Assay type: functional, cell-based
Settings: Hs 683

Row | SMILES | IC50
16 | COc1ccc(-c2cn3nc(-c4ccccc4)c(CN4CCOCC4)c3n2C)cc1 | 5 µM
17 | COc1ccc(-c2cn3nc(-c4ccccc4)c(C(=O)N4CCN(C)CC4)c3n2C)cc1 | > 100 µM
18 | COc1ccc(-c2cn3nc(-c4ccccc4)c(C(=O)N4CCOCC4)c3n2C)cc1 | > 100 µM
19 | COc1ccc(-c2c(-c3ccccc3C#N)n3nc(-c4ccccc4)cc3n2C)cc1 | 26 µM
20 | COc1ccc(-c2c(-c3ccc(OC)cc3)n3nc(-c4ccccc4)cc3n2C)cc1 | > 100 µM
21 | COc1ccc(-c2c(-c3ccc(C(F)(F)F)cc3)n3nc(-c4ccccc4)cc3n2C)cc1 | > 100 µM
22 | COc1ccc(-c2c(-c3cccc(C)c3)n3nc(-c4ccccc4)cc3n2C)cc1 | 59 µM
23 | COc1ccc(-c2c(-c3ccc(C(F)(F)F)cc3)n3nc(-c4ccccc4)c(CN4CCOCC4)c3n2C)cc1 | 0.9 µM
24 | COc1ccc(-c2c(-c3ccc(C(F)(F)F)cc3)n3nc(-c4ccccc4)c(CN4CCN(C)CC4)c3n2C)cc1 | 21 µM
25 | COc1ccc(-c2c(-c3ccc(C)cc3)n3nc(-c4ccccc4)c(CN4CCOCC4)c3n2C)cc1 | 48 µM
26 | COc1ccc(-c2c(-c3ccc(C)cc3)n3nc(-c4ccccc4)c(CN4CCN(C)CC4)c3n2C)cc1 | 18 µM
27 | COc1ccc(-c2c(-c3ccc(C)cc3)n3nc(-c4ccccc4)c(CN4CCCCC4)c3n2C)cc1 | 37 µM
28 | COc1ccc(-c2c(-c3ccncc3)n3nc(-c4ccccc4)c(CN4CCOCC4)c3n2C)cc1 | 3 µM
29 | COc1ccc(-c2c(-c3ccc(C(F)(F)F)cc3)n(C)c3c(CN4CCOCC4)c(-c4ccccc4)nn23)cc1 | 62 µM

Test system: A549
Assay: Anticancer activity human A549 cells assessed as growth inhibition by MTT colorimetric assay
Assay type: functional, cell-based
Settings: not given

Row | SMILES | IC50
30 | COc1ccc(-c2cn3nc(-c4ccccc4)c(CN4CCOCC4)c3n2C)cc1 | 9 µM
31 | COc1ccc(-c2cn3nc(-c4ccccc4)c(C(=O)N4CCN(C)CC4)c3n2C)cc1 | > 100 µM
32 | COc1ccc(-c2cn3nc(-c4ccccc4)c(C(=O)N4CCOCC4)c3n2C)cc1 | > 100 µM
33 | COc1ccc(-c2c(-c3ccccc3C#N)n3nc(-c4ccccc4)cc3n2C)cc1 | 22 µM
34 | COc1ccc(-c2c(-c3ccc(OC)cc3)n3nc(-c4ccccc4)cc3n2C)cc1 | > 100 µM
35 | COc1ccc(-c2c(-c3ccc(C(F)(F)F)cc3)n3nc(-c4ccccc4)cc3n2C)cc1 | > 100 µM
36 | COc1ccc(-c2c(-c3cccc(C)c3)n3nc(-c4ccccc4)cc3n2C)cc1 | 31 µM
37 | COc1ccc(-c2c(-c3ccc(C(F)(F)F)cc3)n3nc(-c4ccccc4)c(CN4CCOCC4)c3n2C)cc1 | 1.3 µM
38 | COc1ccc(-c2c(-c3ccc(C(F)(F)F)cc3)n3nc(-c4ccccc4)c(CN4CCN(C)CC4)c3n2C)cc1 | 20 µM
39 | COc1ccc(-c2c(-c3ccc(C)cc3)n3nc(-c4ccccc4)c(CN4CCOCC4)c3n2C)cc1 | 37 µM
40 | COc1ccc(-c2c(-c3ccc(C)cc3)n3nc(-c4ccccc4)c(CN4CCN(C)CC4)c3n2C)cc1 | 20 µM
41 | COc1ccc(-c2c(-c3ccc(C)cc3)n3nc(-c4ccccc4)c(CN4CCCCC4)c3n2C)cc1 | 51 µM
42 | COc1ccc(-c2c(-c3ccncc3)n3nc(-c4ccccc4)c(CN4CCOCC4)c3n2C)cc1 | 5 µM
43 | COc1ccc(-c2c(-c3ccc(C(F)(F)F)cc3)n(C)c3c(CN4CCOCC4)c(-c4ccccc4)nn23)cc1 | 37 µM

Test system: not listed separately
Assay: Anticancer activity mouse B16F10 cells assessed as growth inhibition by MTT colorimetric assay
Assay type: functional, cell-based
Settings: B16-F10

Row | SMILES | IC50
44 | COc1ccc(-c2cn3nc(-c4ccccc4)c(CN4CCOCC4)c3n2C)cc1 | 5 µM
45 | COc1ccc(-c2cn3nc(-c4ccccc4)c(C(=O)N4CCN(C)CC4)c3n2C)cc1 | 74 µM
46 | COc1ccc(-c2cn3nc(-c4ccccc4)c(C(=O)N4CCOCC4)c3n2C)cc1 | 76 µM
47 | COc1ccc(-c2c(-c3ccc(C(F)(F)F)cc3)n3nc(-c4ccccc4)c(CN4CCOCC4)c3n2C)cc1 | 2.1 µM
48 | COc1ccc(-c2c(-c3ccc(C(F)(F)F)cc3)n3nc(-c4ccccc4)c(CN4CCN(C)CC4)c3n2C)cc1 | 23 µM
49 | COc1ccc(-c2c(-c3ccc(C)cc3)n3nc(-c4ccccc4)c(CN4CCOCC4)c3n2C)cc1 | 46 µM
50 | COc1ccc(-c2c(-c3ccc(C)cc3)n3nc(-c4ccccc4)c(CN4CCN(C)CC4)c3n2C)cc1 | 12 µM
51 | COc1ccc(-c2c(-c3ccc(C)cc3)n3nc(-c4ccccc4)c(CN4CCCCC4)c3n2C)cc1 | 25 µM
52 | COc1ccc(-c2c(-c3ccncc3)n3nc(-c4ccccc4)c(CN4CCOCC4)c3n2C)cc1 | 2 µM
53 | COc1ccc(-c2c(-c3ccc(C(F)(F)F)cc3)n(C)c3c(CN4CCOCC4)c(-c4ccccc4)nn23)cc1 | 38 µM

Test system: SK-MEL-28
Assay: Anticancer activity human SK-MEL-28 cells assessed as growth inhibition by MTT colorimetric assay
Assay type: functional, cell-based
Settings: not given

Row | SMILES | IC50
54 | COc1ccc(-c2cn3nc(-c4ccccc4)c(CN4CCOCC4)c3n2C)cc1 | 14 µM
55 | COc1ccc(-c2cn3nc(-c4ccccc4)c(C(=O)N4CCN(C)CC4)c3n2C)cc1 | > 100 µM
56 | COc1ccc(-c2cn3nc(-c4ccccc4)c(C(=O)N4CCOCC4)c3n2C)cc1 | > 100 µM
57 | COc1ccc(-c2c(-c3ccccc3C#N)n3nc(-c4ccccc4)cc3n2C)cc1 | 16 µM
58 | COc1ccc(-c2c(-c3ccc(OC)cc3)n3nc(-c4ccccc4)cc3n2C)cc1 | > 100 µM
59 | COc1ccc(-c2c(-c3ccc(C(F)(F)F)cc3)n3nc(-c4ccccc4)cc3n2C)cc1 | > 100 µM
60 | COc1ccc(-c2c(-c3cccc(C)c3)n3nc(-c4ccccc4)cc3n2C)cc1 | 29 µM
61 | COc1ccc(-c2c(-c3ccc(C(F)(F)F)cc3)n3nc(-c4ccccc4)c(CN4CCOCC4)c3n2C)cc1 | 2.3 µM
62 | COc1ccc(-c2c(-c3ccc(C(F)(F)F)cc3)n3nc(-c4ccccc4)c(CN4CCN(C)CC4)c3n2C)cc1 | 19 µM
63 | COc1ccc(-c2c(-c3ccc(C)cc3)n3nc(-c4ccccc4)c(CN4CCOCC4)c3n2C)cc1 | > 100 µM
64 | COc1ccc(-c2c(-c3ccc(C)cc3)n3nc(-c4ccccc4)c(CN4CCN(C)CC4)c3n2C)cc1 | 21 µM
65 | COc1ccc(-c2c(-c3ccc(C)cc3)n3nc(-c4ccccc4)c(CN4CCCCC4)c3n2C)cc1 | 39 µM
66 | COc1ccc(-c2c(-c3ccncc3)n3nc(-c4ccccc4)c(CN4CCOCC4)c3n2C)cc1 | 5 µM
67 | COc1ccc(-c2c(-c3ccc(C(F)(F)F)cc3)n(C)c3c(CN4CCOCC4)c(-c4ccccc4)nn23)cc1 | 28 µM

Test system: not listed separately
Assay: Anticancer activity human U373 cells assessed as growth inhibition by MTT colorimetric assay
Assay type: functional, cell-based, U-373MG ATCC
Settings: U373 MG

Row | SMILES | IC50
68 | COc1ccc(-c2cn3nc(-c4ccccc4)c(CN4CCOCC4)c3n2C)cc1 | 4 µM
69 | COc1ccc(-c2cn3nc(-c4ccccc4)c(C(=O)N4CCN(C)CC4)c3n2C)cc1 | > 100 µM
70 | COc1ccc(-c2cn3nc(-c4ccccc4)c(C(=O)N4CCOCC4)c3n2C)cc1 | > 100 µM
71 | COc1ccc(-c2c(-c3ccccc3C#N)n3nc(-c4ccccc4)cc3n2C)cc1 | 13 µM
72 | COc1ccc(-c2c(-c3ccc(OC)cc3)n3nc(-c4ccccc4)cc3n2C)cc1 | 96 µM
73 | COc1ccc(-c2c(-c3ccc(C(F)(F)F)cc3)n3nc(-c4ccccc4)cc3n2C)cc1 | > 100 µM
74 | COc1ccc(-c2c(-c3cccc(C)c3)n3nc(-c4ccccc4)cc3n2C)cc1 | 46 µM
75 | COc1ccc(-c2c(-c3ccc(C(F)(F)F)cc3)n3nc(-c4ccccc4)c(CN4CCOCC4)c3n2C)cc1 | 0.8 µM
76 | COc1ccc(-c2c(-c3ccc(C(F)(F)F)cc3)n3nc(-c4ccccc4)c(CN4CCN(C)CC4)c3n2C)cc1 | 24 µM
77 | COc1ccc(-c2c(-c3ccc(C)cc3)n3nc(-c4ccccc4)c(CN4CCOCC4)c3n2C)cc1 | 30 µM
78 | COc1ccc(-c2c(-c3ccc(C)cc3)n3nc(-c4ccccc4)c(CN4CCN(C)CC4)c3n2C)cc1 | 19 µM
79 | COc1ccc(-c2c(-c3ccc(C)cc3)n3nc(-c4ccccc4)c(CN4CCCCC4)c3n2C)cc1 | 33 µM
80 | COc1ccc(-c2c(-c3ccncc3)n3nc(-c4ccccc4)c(CN4CCOCC4)c3n2C)cc1 | 12 µM
81 | COc1ccc(-c2c(-c3ccc(C(F)(F)F)cc3)n(C)c3c(CN4CCOCC4)c(-c4ccccc4)nn23)cc1 | 20 µM

Test system: NHDF
Assay: Cytotoxicity against human NHDF cells by MTT colorimetric assay
Assay type: cell-based
Settings: not given

Row | SMILES | Activity
82 | COc1ccc(-c2c(-c3ccc(C(F)(F)F)cc3)n3nc(-c4ccccc4)c(CN4CCOCC4)c3n2C)cc1 | Non-toxic
